We go through seven molecules from ChEMBL document CHEMBL5576093, “Design, synthesis and evaluation of bioactivity of peptidomimetics based on chloroalkene dipeptide isosteres” (Bioorg Med Chem, 2024).

SMILES strings stand for the structures.

Test [1] concerns the target C-X-C chemokine receptor type 4 (Homo sapiens, UniProt P61073). The experiment in a line: Antagonist activity at CXCR4 (unknown origin). Format: functional.
For test [2], the target named is Amyloid-beta precursor protein (Homo sapiens) (UniProt P05067). In words: Inhibition of amyloid-beta (1 to 42 residues) (unknown origin) aggregation at 20 uM incubated for 6 hrs by ThT fluorescence based spectrofluorimetric analysis relative to control.
Chain of Amyloid-beta precursor protein (Homo sapiens) (P05067 whole entry, the tested form may be a part): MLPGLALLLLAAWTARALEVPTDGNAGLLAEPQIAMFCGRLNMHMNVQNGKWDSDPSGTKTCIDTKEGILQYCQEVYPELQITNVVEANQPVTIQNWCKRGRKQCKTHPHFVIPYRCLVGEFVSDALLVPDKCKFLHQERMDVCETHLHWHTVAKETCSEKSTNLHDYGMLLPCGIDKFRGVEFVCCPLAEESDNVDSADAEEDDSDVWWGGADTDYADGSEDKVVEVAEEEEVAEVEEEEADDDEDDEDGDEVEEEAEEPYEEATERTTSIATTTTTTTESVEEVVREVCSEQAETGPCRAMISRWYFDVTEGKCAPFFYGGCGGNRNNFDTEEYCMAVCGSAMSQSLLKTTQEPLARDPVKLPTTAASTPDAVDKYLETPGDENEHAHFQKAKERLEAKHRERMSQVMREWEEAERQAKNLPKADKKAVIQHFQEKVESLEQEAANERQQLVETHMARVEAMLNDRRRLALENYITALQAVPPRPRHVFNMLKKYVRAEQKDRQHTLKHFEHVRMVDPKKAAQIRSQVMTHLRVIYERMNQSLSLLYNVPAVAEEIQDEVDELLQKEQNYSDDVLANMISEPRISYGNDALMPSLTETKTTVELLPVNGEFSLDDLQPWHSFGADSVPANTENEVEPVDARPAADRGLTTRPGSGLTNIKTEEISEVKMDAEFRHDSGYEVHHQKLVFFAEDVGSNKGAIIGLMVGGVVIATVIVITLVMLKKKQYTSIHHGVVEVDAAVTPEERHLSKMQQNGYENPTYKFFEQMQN
Test [3] shares this target. In words: Inhibition of amyloid-beta (1 to 42 residues) (unknown origin) aggregation at 10 uM incubated for 6 hrs by ThT fluorescence based spectrofluorimetric analysis relative to control.

Chain of C-X-C chemokine receptor type 4 (P61073 whole entry, the tested form may be a part): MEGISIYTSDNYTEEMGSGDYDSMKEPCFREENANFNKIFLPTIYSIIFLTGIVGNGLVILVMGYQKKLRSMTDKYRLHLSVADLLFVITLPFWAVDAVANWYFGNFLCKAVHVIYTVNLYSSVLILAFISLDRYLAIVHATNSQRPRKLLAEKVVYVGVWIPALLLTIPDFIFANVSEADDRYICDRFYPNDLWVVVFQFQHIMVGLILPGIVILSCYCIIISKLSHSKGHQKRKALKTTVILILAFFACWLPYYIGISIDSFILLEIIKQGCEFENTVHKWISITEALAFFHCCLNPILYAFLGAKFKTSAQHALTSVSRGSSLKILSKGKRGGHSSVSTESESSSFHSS

As usually defined, the EC50 is the concentration needed to bring the measured effect to its halfway point. In test [1], `N=C(N)NCCC[C@H]1/C=C/[C@@H](CCCNC(=N)N)C(=O)N[C@@H](Cc2ccc3ccccc3c2)C(=O)NCC(=O)N[C@H](Cc2ccc(O)cc2)C(=O)N1` came in with an EC50 of 1460 nM.

By inhibition is commonly meant the relative decrease from the control value, in per cent. `CC(C)C[C@H](NC(=O)[C@@H](N)CCCCN)C(=O)N[C@H](C(=O)N[C@@H](Cc1ccccc1)C(=O)N[C@@H](Cc1ccccc1)C(=O)O)C(C)C`: the inhibition in test [2] is 90.2%.

The molecule `CC(C)C[C@H](NC(=O)[C@@H](N)CCCCN)C(=O)N[C@H](C(=O)/C(Cl)=C/N[C@@H](Cc1ccccc1)C(=O)N[C@@H](Cc1ccccc1)C(=O)O)C(C)C` gave an inhibition in test [2] of 79.6%.

In test [2], `O=c1c(O)c(-c2ccc(O)cc2O)oc2cc(O)cc(O)c12` registered an inhibition of 36%.

On to `CC(C)C[C@H]1NC(=O)[C@H](CCCCN)NC(=O)[C@H](Cc2ccccc2)NC(=O)[C@@H](Cc2ccccc2)N/C=C(\Cl)C(=O)[C@H](C(C)C)NC1=O`, for which the figures for the inhibition in test [2] and in test [3] were 24.6% and 30.1%, respectively.

In the case of `CC(C)C[C@@H]1NC(=O)[C@@H](CCCCN)NC(=O)[C@@H](Cc2ccccc2)NC(=O)[C@H](Cc2ccccc2)NC(=O)[C@@H](C(C)C)NC1=O`, the inhibition in test [2] was 20.3%; in test [3] it was 77.9%.

In the case of `N=C(N)NCCC[C@@H]1NC(=O)[C@@H](Cc2ccc(O)cc2)NC(=O)CNC(=O)[C@H](Cc2ccc3ccccc3c2)NC(=O)[C@H](CCCNC(=N)N)/C=C/1F`, the response in test [1] was half-maximal at 1780 nM (EC50).
